The source of these data is patent US11390437B2, “Pharmaceutical formulation” (priority 2002, dated 2022).

Entries after “also recorded” stand apart in the source; their conditions may differ. A value given as a limit tells only on which side of the number the result lay.

A short description of data set [1]: Absorption (AUC) by route of administration, Example 3. The settings on record: after oropharyngeal (buccal) versus sublingual administration.
Data set [2] is described as follows: Cannabinoid uptake in patients, drops applied sublingually. Type of data set: in vivo, human. To be noted: sublingual drops, dose approx 20 mg of each cannabinoid; for Cmax / AUC(0-t): human, plasma; for AUC(0-t): read-out: AUC 0-12. As for the experimental part:
Initially the applicant looked at cannabinoid uptake in patients by applying drops sublingually (BDS dissolved in a mixture of a glycerol/propylene glycol and ethanol) THC 5 mg/ml, CBD 5 mg/ml and THC/CBD 5 mg/ml plus 5 mg/ml.
The results are noted in Table 3 below:
The proportion of 11 hydroxy tetrahydro cannabinol to THC (AUC 0-12) was about 1.9 indicating a significant amount of oral ingestion may have occurred.
(§1) The data obtained is illustrated in FIGS. 1a, 1b and 2, which show the mean plasma concentrations for the formulations identified with reference to Tables 3 and 4.

Data set [3] is described as follows: Cannabinoid uptake, pump action sublingual spray. Type of data set: in vivo, human. The settings on record: dose approx 21 mg THC and 35 mg CBD; for Cmax / AUC(0-t): human, plasma; for AUC(0-t): read-out: AUC 0-12. As for the experimental part:
On moving to a pump action sublingual spray (following problems solubilising cannabinoids with hydrofluorocarbon propellant systems) the applicant obtained the results noted in Table 4. The solvent system comprised 50:50 ethanol to propylene glycol (v/v ratio) with THC 25 mg/ml; CBD 50 mg/ml and THC/CBD 25 mg/ml plus 50 mg/ml respectively.
The proportion of 11 hydroxy tetrahydro cannabinol to THC (AUC 0-12) was about 1.6. The profile for each cannabinoid was similar irrespective of the formulation (THC, CBD, THC plus CBD).
as §1
That effective delivery of the cannabinoids can be achieved in a vehicle consisting of ethanol and propylene glycol is illustrated by the plasma levels shown in FIGS. 1a, 1b and 2. These show, respectively, formulations containing the high THC and high CBD formulations in FIGS. 1a and 1b. Similarly, the effectiveness of a defined ratio formulation THC:CBD 1:1 is illustrated in FIG. 2.

Data set [4] in a line: Effect of light on stability of methanolic CBME solutions, HPLC. To be noted: for residual compound: amber glass protected, 112 days. Type of data set: physicochemical. An excerpt: Experiments were set up to follow the effects of white light on the stability of methanolic solutions of THC, CBD or THCV. Following preliminary knowledge that light of different wavelengths may have differing effects on compound stability (viz. tretinoin is stable only in red light or darkness), samples were wrapped in coloured acetate films or in light exclusive foil. A concurrent experiment used charcoal treated CBME to study the effects of the removal of plant pigments on the degradation process.
Cannabinoids: 1 mg/ml solutions of CBME were made up in AR methanol. Methanolic solutions of CBME (100 mg/ml) were passed through charcoal columns (Biotage Flash 12AC 7.5 cm cartridges, b/no. 273012S) and were then diluted to 1 mg/ml. Solutions were stored in soda-glass vials, which were tightly screw capped and oversealed with stretch film. Tubes were wrapped in coloured acetate films as follows:
Solutions were also filled into the amber glass U-save vials; these were sealed with a septum and oversealed. One tube of each series of samples was tightly wrapped in aluminium foil in order to completely exclude light. This served as a “dark” control to monitor the contribution of ambient temperature to the degradation behaviour. All of the above tubes were placed in a box fitted with 2×40 watt white Osram fluorescent tubes. The walls of the box were lined with reflective foil and the internal temperature was monitored at frequent intervals.
A further tube of each series was stored at −20° C. to act as a pseudo to the reference sample; in addition, one tube was exposed directly to light without protection. Samples were withdrawn for chromatographic analysis at intervals up to 112 days following the start of the study. The study was designated AS01201/AX282.
(§2) Samples of the test solutions were withdrawn and diluted as appropriate for HPLC and TLC analysis. HPLC was carried out in accordance with TM GE.004.V1 (SOPam058). TLC was performed on layers on Silica gel (MN SilG/UV) in accordance with TM GE.002.V1 (SOPam056).
The results from the HPLC analysis of samples drawn from the stored, light exposed solutions, are plotted and presented as FIGS. 6 and 6a (THC before and after charcoal treatment), and FIGS. 7 and 7a (CBD before and after charcoal treatment).

A short description of data set [5]: Effect of light on stability, TLC qualitative analysis. It is filed as physicochemical. As for the experimental part: as §2
The evaluation of the light degraded solutions using thin layer chromatography, used both the existing normal phase system (i.e. Silica stationary phase and hexane/diethyl ether as mobile phase) and two additional systems, capable of resolving more polar or polymeric products formed during the degradation processes.
At the same time, there was an increase in the intensity of Fast Blue B staining material running at, or close to, the origin.

The conditions of data set [6]: CNS effect; Carlini et al, 1973; cited from earlier work.
For data set [7] the following is noted: postural hypotension in naïve patients, hypertension reported on prolonged usage; cited from earlier work.
The conditions of data set [8]: THC alone versus same quantity of THC as Cannabis extract; cited from earlier work.
Data set [9] is described as follows: Relative thermo-oxidative stability. The settings on record: THC versus CBD.
A short description of data set [10]: Reports of subjects taking THCV. The settings on record: compared with THC.

For the compound `CCCCCc1cc(O)c2c(c1)OC(C)(C)[C@@H]1CCC(CO)=C[C@@H]21` [11-OH THC, 11 hydroxy tetrahydro cannabinol], the “reduction in the amount of 11-hydroxy metabolite detected” value in data set [1] is “approximately 25%”.
The Cmax is the peak of the concentration-time curve. As to `C=C(C)[C@@H]1CCC(C)=C[C@H]1c1c(O)cc(CCCCC)cc1O` [CBD, cannabidiol], the results for the peak concentration (Cmax) in data set [2] and in [3] were 2 ng/mL and 8 ng/mL, respectively. For the same compound, the figures for the AUC(0-t) in data set [2] and in data set [3] were approximately 8 ng·h/mL and approximately 22 ng·h/mL, respectively. In addition, the “Plasma levels after 6 hours” value is approximately 0.5 ng/mL in data set [2]; “Plasma levels after 6 hours were about 1 ng/ml THC and 1 ng/ml CBD” in [3]. Further, the residual compound result is given as “approximately 64%” in data set [4] (after charcoal treatment) and approximately 38% in data set [4] (without charcoal clean up). Besides, the “relative stability under photochemical stress” value in data set [4] (light exposed methanolic CBME solutions) is “significantly more sensitive to the effects of light than is THC; also recorded: markedly less stable than THC”. Further, the “time to degradation to non-detectable levels” value in [4] (no charcoal treatment, all light exposures except amber glass, foil and −20° storage, 1 mg/ml CBME in methanol) is listed as less than 40 days.
For `CCCCCc1cc(O)c2c(c1)OC(C)(C)[C@@H]1CCC(C)=C[C@@H]21` [THC, Δ^9-tetrahydrocannabinol], in [2], the Cmax amounted to 6 ng/mL, the AUC(0-t) was approximately 16 ng·h/mL and the “Plasma levels after 6 hours” value is approximately 1 ng/mL. For the same compound, in [3], the “Plasma levels after 6 hours” value is “Plasma levels after 6 hours were about 1 ng/ml THC and 1 ng/ml CBD”; the Cmax stood at 6 ng/mL; the AUC(0-t) was approximately 16 ng·h/mL. The “stability of charcoal treated versus untreated extract” value in data set [4] (all solutions except those stored in the dark and at −20° C.) is recorded as “significant improvements to the stability”. Besides, the TLC spot intensity entry in [5] (day 112, all colour filtered lights, hexane/diethyl ether system) was “reduction in the intensity”. Besides, the TLC spot intensity result in data set [5] (day 112, foil protected solution) is “none of these effects”. In addition, the Anticonvulsant entry in data set [6] was “† THC is pro convulsant”. For the same compound, the “effect on blood pressure” value in data set [7] was “§ THC has a biphasic effect on blood pressure; in naïve patients it may produce postural hypotension and it has also been reported to produce hypertension on prolonged usage”. Further, in data set [8], the “degree of pain relief” value is recorded as “lower degree of pain relief than the same quantity of THC given as an extract of Cannabis”. In addition, in [9], the relative thermo-oxidative stability result is recorded as “less stable”.
Take `CCCc1cc(O)c2c(c1)OC(C)(C)[C@@H]1CCC(C)=C[C@@H]21` [THCV, Δ^9-tetrahydrocannabinol propyl analogue]: in [10], the hangover entry is “less severe hangover” and the “mood enhancement as reported by subjects” value was “less disturbing than that produced by THC”.
